Results: ChEMBL document CHEMBL6182916, “Unexpected Discovery of a Novel Triphenylphosphonium Alkylalcohol That Triggers Cancer Cell Death via Mitophagy and Ferroptosis” (J Med Chem, 2025)
Activity calls are given as the source filed them. The calls are words filed in the database; no cut-off is given here.

Columns and labels:
NCI-H1975 = assay: Antiproliferative activity against human NCI-H1975 cells assessed as inhibition of cell growth measured after 72 hrs by MTT assay; format: functional, cell-based; settings: NCI-H1975, 72 h
HCC827 [1] = assay: Antiproliferative activity against human HCC827 cells assessed as inhibition of cell growth measured after 72 hrs by MTT assay; format: functional, cell-based; settings: HCC827, 72 h
A549 = assay: Antiproliferative activity against human A549 cells assessed as inhibition of cell growth measured after 72 hrs by MTT assay; format: functional, cell-based; settings: A549, 72 h
NCI-H1650 = assay: Antiproliferative activity against human NCI-H1650 cells assessed as inhibition of cell growth measured after 72 hrs by MTT assay; format: functional, cell-based; settings: NCI-H1650, 72 h
[2] = Drug accumulation in mitochondria of human HCC827 cells at 10 uM incubated for 10 mins in presence of CCCP by RP-HPLC-UV analysis; format: ADME; settings: hcc827, 10 min
Mitochondrial membrane = assay: Induction of mitochondrial membrane depolarization in human NCI-H1650 cells assessed as increase in JC-1 monomer ratio at 0.25 to 0.5 uM incubated for 4 hrs by JC-1 staining based confocal microscopy analysis; format: cell membranes; settings: dose 0.25-0.5 µM
BEAS-2B = assay: Induction of mitochondrial dysfunction in human BEAS-2B cells assessed as reduction in glycolytic capacity at 0.125 to 5 uM incubated for 4 hrs by Seahorse XF96 extracellular flux analyzer; format: functional, cell-based; settings: dose 0.125-5 µM
HCC827 [3] = assay: Downregulation of VDAC1 expression level in human HCC827 cells incubated for 24 hrs by Western blot analysis; format: functional, cell-based; settings: dose 0.25-5 µM
HCC827 [4] = assay: Downregulation of VDAC1 expression level in human HCC827 cells 0.25 to 0.5 uM incubated for 24 hrs in presence of BFA by Western blot analysis; format: functional, cell-based; settings: dose 0.25-0.5 µM
HCC827 [5] = assay: Downregulation of TOMM20 expression level in human HCC827 cells at 0.5 uM by Western blot analysis; format: functional, cell-based; settings: time 3-24 hrs
HCC827 [6] = assay: Induction of mitophagy in human HCC827 cells assessed as increase in LC3-II/LC-3-I ratio at 0.5 uM measured after 24 hrs by Western blot analysis; format: functional, cell-based
HCC827 [7] = assay: Upregulation of PINK1 level in human HCC827 cells at 0.25 to 0.5 uM measured after 24 hrs; format: functional, cell-based; settings: dose 0.25-0.5 µM
HEK-293T [8] = assay: Downregulation of TIMM23 expression level in human HEK293T cells; format: functional, cell-based; settings: dose 0.25-0.5 µM
HEK-293T [9] = assay: Downregulation of […] expression level in human HEK293T cells harbouring PINK knockout at 0.25 to 0.5 uM; format: functional, cell-based; settings: dose 0.25-0.5 µM
HCC827 [10] = assay: Induction of cell cycle arrest in human HCC827 cells assessed as increase in p53 expression level at 0.25 to 5 uM measured after 24 hrs by Western blot analysis; format: functional, cell-based; settings: dose 0.25-5 µM
HCC827 [11] = assay: Induction of cell cycle arrest in human HCC827 cells assessed as accumulation of cells at S phase at 0.4 uM incubated for 24 hrs by PI staining based flow cytometry analysis (reference value: 26.41%); format: functional
HCC827 [12] = assay: Induction of ferroptosis in human HCC827 cells assessed as decrease in GSH level incubated for 24 hrs by absorbance based analysis; format: functional, cell-based; settings: dose 0.5-2 µM
HCC827 [13] = assay: Induction of apoptosis in human HCC827 cells assessed as early apoptotic cells at 0.5 uM measured after 48 hrs by annexin V and PI staining based flow cytometry analysis (reference value: 0.70%); format: functional
HCC827 [14] = assay: Induction of apoptosis in human HCC827 cells assessed as late apoptotic cells at 0.5 uM measured after 48 hrs by annexin V and PI staining based flow cytometry analysis (reference value: 1.29%; format: functional
HCC827 [15] = assay: Induction of apoptosis in human HCC827 cells assessed as late apoptotic cells at 1 uM measured after 24 hrs by annexin V and PI staining based flow cytometry analysis (reference value: 2.18%); format: functional
HCC827 [16] = assay: Induction of apoptosis in human HCC827 cells assessed as necrotic cells at 1 uM measured after 24 hrs by annexin V and PI staining based flow cytometry analysis (Rvb =0.84%); format: functional
HCC827 [17] = assay: Antiproliferative activity against human HCC827 cells assessed as cell viability measured after 48 hrs by MTT assay; format: functional, cell-based; settings: HCC827, 48 h
HCC827 [18] = assay: Antiproliferative activity against human HCC827 cells assessed as increase in cell viability at 1 uM measured after 48 hrs in presence of 3-MA by MTT assay; format: functional, cell-based
HCC827 [19] = assay: Effect on ATP5A expression in human HCC827 cells at 0.25 to 0.5 uM incubated for 24 hrs by Western blot analysis; format: functional, cell-based; settings: dose 0.25-0.5 µM
[20] = molecular target: T1, Heat shock protein 75 kDa, mitochondrial (Homo sapiens) (UniProt Q12931); assay: Inhibition of human TRAP1 assessed as fold increase in ATPase activity at 20 uM
T1 sequence (whole entry): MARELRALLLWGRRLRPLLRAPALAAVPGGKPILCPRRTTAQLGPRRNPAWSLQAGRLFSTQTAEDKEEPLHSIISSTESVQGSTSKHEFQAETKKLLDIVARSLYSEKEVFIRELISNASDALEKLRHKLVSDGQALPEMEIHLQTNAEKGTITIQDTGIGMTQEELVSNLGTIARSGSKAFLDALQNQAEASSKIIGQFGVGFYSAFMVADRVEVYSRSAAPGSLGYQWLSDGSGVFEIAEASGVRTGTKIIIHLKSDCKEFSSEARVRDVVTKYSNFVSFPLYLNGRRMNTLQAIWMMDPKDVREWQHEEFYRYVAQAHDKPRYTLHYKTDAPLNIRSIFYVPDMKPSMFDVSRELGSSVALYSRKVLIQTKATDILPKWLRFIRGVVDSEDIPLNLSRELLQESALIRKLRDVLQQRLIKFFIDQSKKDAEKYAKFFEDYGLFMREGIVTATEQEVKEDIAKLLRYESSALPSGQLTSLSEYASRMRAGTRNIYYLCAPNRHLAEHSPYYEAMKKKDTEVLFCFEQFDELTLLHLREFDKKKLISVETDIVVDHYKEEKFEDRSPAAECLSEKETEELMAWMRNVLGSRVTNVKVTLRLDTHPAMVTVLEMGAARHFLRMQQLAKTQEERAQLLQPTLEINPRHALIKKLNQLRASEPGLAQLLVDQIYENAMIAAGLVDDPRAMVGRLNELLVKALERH

HCC827 [21] = assay: Inhibition of cell migration in human HCC827 cells at 0.05 to 0.1 uM incubated for 24 hrs by crystal violet staining based transwell assay; format: functional; settings: dose 0.05-0.1 µM
[22] = Toxicity in female BALB/c mouse assessed as effect on body weight at 30 mg/kg, ip measured for 7 days; format: organism-based; settings: in vivo, 168 h, time 7 day
[23] = Toxicity in female BALB/c mouse assessed as histopathological changes in heart at 30 mg/kg, ip measured for 7 days by H and E staining based analysis; format: organism-based; settings: in vivo, 168 h, time 7 day
[24] = Toxicity in female BALB/c mouse assessed as histopathological changes in spleen at 30 mg/kg, ip measured for 7 days by H and E staining based analysis; format: organism-based; settings: in vivo, 168 h, time 7 day
HCC827 [25] = assay: Antimetastatic activity against human HCC827 cells xenografted in female nude mouse model assessed as increase in cadherin level at 5 to 10 mg/kg, ip by Western blot analysis; format: functional, organism-based; settings: dose 5-10 mg/kg

Cc1ccc([P+](CCCCCCCCCCO)(c2ccc(C)cc2)c2ccc(C)cc2)cc1.[Br-]
IC50 (NCI-H1975): 200 nM | IC50 (HCC827 [1]): 70 nM | IC50 (A549): 490 nM | IC50 (NCI-H1650): 470 nM | Drug uptake [2]: Not_active | Activity (Mitochondrial membrane): Active | Activity (BEAS-2B): Minimal_effect | Activity (HCC827 [3]): Dose-dependent-effect | Activity (HCC827 [4]): inactive | Activity (HCC827 [5]): Time-dependent-effect | Activity (HCC827 [6]): Active | Activity (HCC827 [7]): Active | Activity (HEK-293T [8]): Dose-dependent-effect | Activity (HEK-293T [9]): inactive | Activity (HCC827 [10]): Active | Activity (HCC827 [11]): 9.39% | Activity (HCC827 [12]): Dose-dependent-effect | Activity (HCC827 [13]): 2.34% | Activity (HCC827 [14]): 7.12% | Activity (HCC827 [15]): 3.84% | Activity (HCC827 [16]): 1.47% | IC50 (HCC827 [17]): 120 nM | Activity (HCC827 [18]): Active | Activity (HCC827 [19]): Active | fold change (FC) [20]: 2 | inhibition (HCC827 [21]): Active | Activity [22]: Non-toxic | Activity [23]: Non-toxic | Activity [24]: Non-toxic | Activity (HCC827 [25]): Active
